Columns and labels:
[1] = biological target: T1, BLVRB Flavin reductase (NADPH) (P30043) (Homo sapiens, UniProt P30043); test: SILAC RP-ABPP; type: cell-based; settings: SILAC H/L, HEK293T
T1 construct: shared by both the endogenous and recombinant forms of these proteins; endogenous in cells; host or cells: HEK293T and MDA-MB-231
Procedure, shortened: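 SILAC cells (HEK293T, MDA-MB-231) grown near confluence; heavy: probe 1, 3 mM, 0.5 h; light: equal 3 or probe + 10× 3. Proteomes mixed equimolar, CuAAC with 100 μM biotin-azide, 1 h RT; enrichment, LC-MS. Ratios via CIMAGE-type extraction, ≥3 peptides.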

[2] = test system: HEK293T cells; test: CellTiter-Glo luminescence cell viability assay; type: cell-based, human; settings: probe 1 3 mM, 1 hour, 37° C., n=4; untreated 132±2
Protocol: Working stock solutions of probes and competitors were neutralized prior to treatment and media was supplemented with 10 mM Na-HEPES (pH 7.5) to enhance the buffer capacity to ensure the pH was maintained. The phenol red pH indicator of the media confirmed that there was no substantial change in pH during the treatment. Cell viability was quantified based on ATP levels in the absence and presence of probe 1 with or without competitor probe 3 using the CellTiter-Glo luminescence assay (Promega). Trypsinized HEK293T cells were diluted in serum-free DMEM supplemented with 10 mM Na-HEPES to a final concentration of 0.8 million cells/mL. To a cell culture microplate (Greiner Bio-One No. 655098; white, 96-well, 34 mm^2 growth area per well, Clear bottom), 80,000 cells (100 μL of cell suspension) were plated per well. […] After 20 minutes at ambient temperature, luminescence was measured on a Biotech Synergy 4 plate reader. Well luminescence, in relative light units (RLU), under each condition (n=4 of each) was measured to determine cell viability according to the formula: Iuntreated, Iprobe 1, and Iprobe 1/competitor 3=(132±2, 139±2, and 134±1)×10^3 RLU. “Iuntreated” refers to the intensity of luminescence of untreated cells; and “Iprobe 1” refers to the intensity of luminescence of probe-1 treated cells.

T1 sequence (P30043 whole entry): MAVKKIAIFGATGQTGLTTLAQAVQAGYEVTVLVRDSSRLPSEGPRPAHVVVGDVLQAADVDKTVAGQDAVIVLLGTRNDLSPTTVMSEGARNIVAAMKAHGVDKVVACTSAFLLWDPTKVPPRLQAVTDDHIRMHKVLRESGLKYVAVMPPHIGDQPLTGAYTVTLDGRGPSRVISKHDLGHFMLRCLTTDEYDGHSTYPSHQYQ

SMILES: C#CCNN.Cl [probe 1, prop-2-yn-1-ylhydrazine hydrochloride]
- enrichment ratioavg ([1]; probe 1 3 mM 0.5 h vs probe 3): 20
- competition ratioavg ([1]; probe 1 vs probe 1+10x probe 3): 2
- Well luminescence (cell viability based on ATP levels) [2]: 139±2 ×10^3 RLU
